test system: corneodesmosine; experiment: Degradation of corneodesmosines in acetonic powders of stratum corneum (immunoblotting with antibody G36-19, chemiluminescence); assay type: biochemical, human; conditions: aqueous solution containing 2% of active agent, pH 8.0, 17 h incubation at 30° C., 33 and 46 kD bands, versus control without active agent
Protocol: Method for evaluating desquamation by measuring the degradation of corneodesmosines The ability of aminosulfonic derivatives of formula (I) according to the invention to promote desquamation by degradation of corneodesmosines is studied in this example. […] It is studied by immunoblotting after separation by electrophoresis and transfer onto a membrane. […] The nylon-varnish strips associated with the corneocytes are immersed in 1 ml/cm^2 of acetone in order to detach the corneocytes. The mixture is filtered and then rinsed three times with the same volume of acetone in order to remove all trace of varnish. Finally, the mixture is dried under vacuum: acetonic powders of stratum corneum are thus obtained. The acetonic powders are divided into 1 mg aliquots. 100 μl of the aqueous solutions containing 2% of active agent adjusted to pH 8.0 are added. […] Two incubation times are studied: t=0 and t=17 h. In the latter case, the incubation takes place at 30° C. with stirring. After incubation, the mixtures are centrifuged for 10 minutes at 10 000×g. The supernatant is removed and replaced with 100 μl of 0.0625 M Tris/HCl pH 6.8 Laemmli buffer, 2% SDS, 200 mM DTT, 10% glycerol, which allows the proteins to be extracted. The mixture is boiled for 10 minutes at 100° C. and then ground in a Potter mill. The mixture is centrifuged for 10 minutes at 10 000×g and the supernatant is then collected. It contains the corneodesmosomal proteins. The total proteins are assayed according to the Bradford method (Biorad kit). This allows an adjustment to 0.6 mg/ml of the samples and a real comparison of the treatments. The samples and also a Rainbow (Amersham Pharmacia Biotech) low molecular weight standard at 1⁄3 are separated by electrophoresis on gel containing 12% acrylamide for 30 minutes at 100 V and then for 1 hour at 200 V. After the electrophoresis, the proteins are transferred onto an Immobilon-P membrane (Millipore) for 3 hours at 60 V. The membrane is then incubated for twice 15 minutes in TBS-TL buffer: 25 mM Tris, 0.15M NaCi pH 7.2, 0.05% Tween 20, 0.5% skimmed milk powder, in order to block the non-specific sites. Incubation with the antibody [MUT]-19 at 1/12500 is performed overnight at 4° C. After two rinses of 5 minutes in TBS-TL buffer, the membrane is incubated with a goat anti-mouse IG(H+L) antibody peroxidase conjugate (Biorad) at 1/4000 for 1 hour 30 minutes at ambient temperature. After several rinses of 5 minutes in TBS-TL buffer and then TBS buffer (without milk or Tween), the membrane is incubated for 1 minute in 10 ml of ECL reagent (Amersham Pharmacia Biotech). The chemiluminescence of the corneodesmosine bands is measured with the FluorS Multimager (Biorad). The 33 and 46 kD bands are quantified with the Quantity-one software (Biorad). […] This control takes into account the natural degradation of the corneodesmosines which takes place during the incubation.

Question: For `NCC(=O)O` [Glycine, reference compound], which “Percentage increase in the degradation of corneodesmosine” value (from here on “Percentage increase in the degradation”) is on record?
Answer: 51%

Question: Which “Percentage increase in the degradation” value does the source give for `O=S(=O)(O)CCN1CCN(CCO)CC1` [4-(2-hydroxyethyl)piperazine-1-ethanesulfonic acid] here?
Answer: 65%

Question: For `O=S(=O)(O)CCCN1CCOCC1` [3-Morpholinopropanesulfonic acid, 3-morpholinopropanesulfonic acid], which “Percentage increase in the degradation” value is on record?
Answer: 39%

Question: Which “Percentage increase in the degradation” value does the source give for `O=S(=O)(O)CCN1CCN(CCS(=O)(=O)O)CC1` [piperazine-1,4-bis(2-ethanesulfonic acid)] here?
Answer: 65%

Question: With `O=S(=O)(O)CC(O)CN1CCN(CC(O)CS(=O)(=O)O)CC1` (stereo not drawn) [piperazine-1,4-bis(2-hydroxypropanesulfonic acid)] as the molecule, how does the “Percentage increase in the degradation” value read?
Answer: 63%

test system: desmoglein (corneodesmosomal protein); experiment: not given; conditions: shown in EP-A2-0,852,949 (Shiseido); cited from earlier work

Question: For `NCC(=O)O` [Glycine, reference compound], which “Effect on the degradation of desmoglein (in words)” value is on record?
Answer: promotes the degradation of desmoglein

Reference: patent US20030232063A1, “Aminosulfonic acid compounds for promoting desquamation of the skin” (SOCIETE L'OREAL S.A., priority 2000, published 2003)
